pKd: −log10 of the molar value.
Legend:
Experiment in all cases: KINOMEscan competition binding
[1] = target: GAK (human) (UniProt O14976)
[2] = target: MET (human) (UniProt P08581)
[3] = target: DDR1 (human) (UniProt Q08345)
[4] = target: IRAK3 (human) (UniProt Q9Y616)
[5] = target: HCK (human) (UniProt P08631)
[6] = target: PRKD2 (human) (UniProt Q9BZL6)
[7] = target: YSK4 (human) (UniProt Q56UN5)
[8] = target: FGFR4 (human) (UniProt P22455)
[9] = target: ABL1 (human), P00519 [H396P]
[10] = target: CSNK1E (human) (UniProt P49674)
[11] = target: EPHA7 (human) (UniProt Q15375)
[12] = target: MAPK14 (human) (UniProt Q16539)
[13] = target: DYRK2 (human) (UniProt Q92630)
DYRK2 (human), sequence (Q92630 whole entry, looked up): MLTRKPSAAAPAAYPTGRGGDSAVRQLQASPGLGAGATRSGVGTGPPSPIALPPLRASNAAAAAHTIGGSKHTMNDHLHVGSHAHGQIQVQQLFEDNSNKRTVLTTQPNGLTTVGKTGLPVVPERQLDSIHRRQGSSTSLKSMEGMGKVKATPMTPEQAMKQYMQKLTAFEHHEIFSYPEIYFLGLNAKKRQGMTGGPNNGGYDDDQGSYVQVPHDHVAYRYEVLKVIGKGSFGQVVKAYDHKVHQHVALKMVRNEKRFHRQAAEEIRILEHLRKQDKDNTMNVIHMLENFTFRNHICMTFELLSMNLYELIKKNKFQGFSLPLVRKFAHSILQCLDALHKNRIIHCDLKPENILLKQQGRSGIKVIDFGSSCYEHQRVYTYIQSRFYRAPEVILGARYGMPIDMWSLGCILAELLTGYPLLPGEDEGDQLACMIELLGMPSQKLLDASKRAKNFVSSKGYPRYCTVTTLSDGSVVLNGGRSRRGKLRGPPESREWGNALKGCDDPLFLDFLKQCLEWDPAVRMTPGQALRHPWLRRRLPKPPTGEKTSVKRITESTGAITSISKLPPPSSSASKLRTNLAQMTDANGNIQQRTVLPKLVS

[14] = target: CDK11B (human) (UniProt P21127)
[15] = target: DYRK1A (human) (UniProt Q13627)
[16] = target: MAP2K4 (human) (UniProt P45985)
MAP2K4 (human), sequence (P45985 whole entry, looked up): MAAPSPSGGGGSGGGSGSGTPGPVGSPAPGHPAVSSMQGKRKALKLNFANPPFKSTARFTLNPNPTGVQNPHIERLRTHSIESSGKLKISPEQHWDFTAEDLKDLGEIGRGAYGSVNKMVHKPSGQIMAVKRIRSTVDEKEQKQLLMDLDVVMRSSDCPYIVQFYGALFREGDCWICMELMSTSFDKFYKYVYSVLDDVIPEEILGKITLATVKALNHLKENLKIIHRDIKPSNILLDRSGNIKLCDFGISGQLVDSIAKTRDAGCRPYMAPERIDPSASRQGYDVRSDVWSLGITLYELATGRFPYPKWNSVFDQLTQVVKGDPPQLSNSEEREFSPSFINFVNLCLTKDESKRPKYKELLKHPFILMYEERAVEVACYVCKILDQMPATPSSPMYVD

[17] = target: TTK (human) (UniProt P33981)
[18] = target: CSNK1G1 (human) (UniProt Q9HCP0)
[19] = target: TAOK1 (human) (UniProt Q7L7X3)
[20] = target: MAPK11 (human) (UniProt Q15759)
[21] = target: EPHA3 (human) (UniProt P29320)
EPHA3 (human), sequence (P29320 whole entry, looked up): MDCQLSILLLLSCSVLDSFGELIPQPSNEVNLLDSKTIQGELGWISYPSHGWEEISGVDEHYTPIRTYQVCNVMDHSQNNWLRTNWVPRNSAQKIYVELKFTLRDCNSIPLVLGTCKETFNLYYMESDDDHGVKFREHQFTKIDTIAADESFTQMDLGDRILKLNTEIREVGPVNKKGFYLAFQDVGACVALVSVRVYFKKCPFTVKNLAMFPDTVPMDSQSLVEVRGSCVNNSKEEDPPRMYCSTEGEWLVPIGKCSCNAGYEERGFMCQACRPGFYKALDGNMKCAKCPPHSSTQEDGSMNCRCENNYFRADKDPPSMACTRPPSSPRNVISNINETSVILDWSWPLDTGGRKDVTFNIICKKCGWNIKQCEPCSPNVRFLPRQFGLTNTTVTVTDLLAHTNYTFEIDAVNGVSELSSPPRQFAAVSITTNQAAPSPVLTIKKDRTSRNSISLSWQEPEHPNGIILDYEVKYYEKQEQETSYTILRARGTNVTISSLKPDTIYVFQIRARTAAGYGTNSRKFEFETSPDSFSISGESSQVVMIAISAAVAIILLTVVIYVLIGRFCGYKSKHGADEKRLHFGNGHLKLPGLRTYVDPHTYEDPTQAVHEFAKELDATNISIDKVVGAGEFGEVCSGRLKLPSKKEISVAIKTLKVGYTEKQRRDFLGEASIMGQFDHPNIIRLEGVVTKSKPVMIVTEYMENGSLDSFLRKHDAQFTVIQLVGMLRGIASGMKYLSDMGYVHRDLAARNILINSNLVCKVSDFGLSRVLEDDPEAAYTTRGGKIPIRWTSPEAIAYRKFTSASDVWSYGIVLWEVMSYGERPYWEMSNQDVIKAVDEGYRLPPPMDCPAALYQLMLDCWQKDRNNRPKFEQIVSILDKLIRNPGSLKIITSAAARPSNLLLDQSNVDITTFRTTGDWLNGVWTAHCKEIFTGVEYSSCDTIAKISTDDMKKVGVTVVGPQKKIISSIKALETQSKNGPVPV

[22] = target: MYLK4 (human) (UniProt Q86YV6)
[23] = target: BMP2K (human) (UniProt Q9NSY1)
[24] = target: TESK1 (human) (UniProt Q15569)
[25] = target: BRAF (human) (UniProt P15056)
[26] = target: AKT2 (human) (UniProt P31751)
AKT2 (human), sequence (P31751 whole entry, looked up): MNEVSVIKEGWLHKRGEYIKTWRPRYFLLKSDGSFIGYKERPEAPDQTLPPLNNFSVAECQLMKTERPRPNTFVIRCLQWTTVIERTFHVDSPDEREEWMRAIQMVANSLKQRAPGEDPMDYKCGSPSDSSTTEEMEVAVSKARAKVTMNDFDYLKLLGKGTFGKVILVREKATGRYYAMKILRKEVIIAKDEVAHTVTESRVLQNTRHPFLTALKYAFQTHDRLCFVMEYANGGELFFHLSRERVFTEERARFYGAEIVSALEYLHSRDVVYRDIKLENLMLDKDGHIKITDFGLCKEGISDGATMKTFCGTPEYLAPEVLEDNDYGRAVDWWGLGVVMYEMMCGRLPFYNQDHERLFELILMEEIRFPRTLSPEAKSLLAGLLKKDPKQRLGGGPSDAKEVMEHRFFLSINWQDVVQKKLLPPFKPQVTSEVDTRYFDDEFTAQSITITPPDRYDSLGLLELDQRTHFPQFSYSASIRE

[27] = target: PTK2B (human) (UniProt Q14289)
[28] = target: ABL1 (human), P00519 [Y253F]
[29] = target: RPS6KA4 KD1 (human) (UniProt O75676)
[30] = target: SRC (human) (UniProt P12931)
SRC (human), sequence (P12931 whole entry, looked up): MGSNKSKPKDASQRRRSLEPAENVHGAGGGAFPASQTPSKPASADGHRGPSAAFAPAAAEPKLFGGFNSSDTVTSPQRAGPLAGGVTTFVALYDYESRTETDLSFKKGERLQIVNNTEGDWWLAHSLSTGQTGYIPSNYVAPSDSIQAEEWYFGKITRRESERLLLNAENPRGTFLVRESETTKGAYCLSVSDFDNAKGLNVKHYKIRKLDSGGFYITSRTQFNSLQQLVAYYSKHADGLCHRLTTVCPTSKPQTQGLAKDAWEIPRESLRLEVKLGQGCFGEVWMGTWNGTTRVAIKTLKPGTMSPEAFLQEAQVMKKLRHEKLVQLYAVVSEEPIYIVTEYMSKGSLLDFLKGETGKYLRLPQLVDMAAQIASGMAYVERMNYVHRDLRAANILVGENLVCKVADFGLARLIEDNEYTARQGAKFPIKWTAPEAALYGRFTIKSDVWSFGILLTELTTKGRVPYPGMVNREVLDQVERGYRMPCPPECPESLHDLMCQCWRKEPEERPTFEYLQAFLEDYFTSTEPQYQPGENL

[31] = target: EPHA8 (human) (UniProt P29322)
[32] = target: EPHA6 (human) (UniProt Q9UF33)
[33] = target: PDGFRA (human) (UniProt P16234)
[34] = target: CDK8 (human) (UniProt P49336)
[35] = target: RIOK2 (human) (UniProt Q9BVS4)
[36] = target: MYLK2 (human) (UniProt Q9H1R3)
[37] = target: PRKACA (human) (UniProt P17612)
[38] = target: FGFR3 (human), P22607 [G697C]
[39] = target: FLT3 (human), P36888 [N841I]
[40] = target: STK36 (human) (UniProt Q9NRP7)
[41] = target: CDK15 (human) (UniProt Q96Q40)
CDK15 (human), sequence (Q96Q40 whole entry, looked up): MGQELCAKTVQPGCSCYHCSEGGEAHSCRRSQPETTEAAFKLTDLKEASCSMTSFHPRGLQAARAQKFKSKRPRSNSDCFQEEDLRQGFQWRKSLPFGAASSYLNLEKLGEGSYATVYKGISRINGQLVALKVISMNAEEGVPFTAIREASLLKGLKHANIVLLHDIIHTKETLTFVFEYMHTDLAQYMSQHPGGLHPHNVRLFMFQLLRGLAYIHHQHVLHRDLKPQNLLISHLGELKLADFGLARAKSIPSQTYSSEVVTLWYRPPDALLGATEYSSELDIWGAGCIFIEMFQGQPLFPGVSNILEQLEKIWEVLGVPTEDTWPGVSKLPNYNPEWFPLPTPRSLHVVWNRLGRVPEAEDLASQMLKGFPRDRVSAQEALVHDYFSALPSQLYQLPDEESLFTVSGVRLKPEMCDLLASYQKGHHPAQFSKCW

MET (human), sequence (P08581 whole entry, looked up): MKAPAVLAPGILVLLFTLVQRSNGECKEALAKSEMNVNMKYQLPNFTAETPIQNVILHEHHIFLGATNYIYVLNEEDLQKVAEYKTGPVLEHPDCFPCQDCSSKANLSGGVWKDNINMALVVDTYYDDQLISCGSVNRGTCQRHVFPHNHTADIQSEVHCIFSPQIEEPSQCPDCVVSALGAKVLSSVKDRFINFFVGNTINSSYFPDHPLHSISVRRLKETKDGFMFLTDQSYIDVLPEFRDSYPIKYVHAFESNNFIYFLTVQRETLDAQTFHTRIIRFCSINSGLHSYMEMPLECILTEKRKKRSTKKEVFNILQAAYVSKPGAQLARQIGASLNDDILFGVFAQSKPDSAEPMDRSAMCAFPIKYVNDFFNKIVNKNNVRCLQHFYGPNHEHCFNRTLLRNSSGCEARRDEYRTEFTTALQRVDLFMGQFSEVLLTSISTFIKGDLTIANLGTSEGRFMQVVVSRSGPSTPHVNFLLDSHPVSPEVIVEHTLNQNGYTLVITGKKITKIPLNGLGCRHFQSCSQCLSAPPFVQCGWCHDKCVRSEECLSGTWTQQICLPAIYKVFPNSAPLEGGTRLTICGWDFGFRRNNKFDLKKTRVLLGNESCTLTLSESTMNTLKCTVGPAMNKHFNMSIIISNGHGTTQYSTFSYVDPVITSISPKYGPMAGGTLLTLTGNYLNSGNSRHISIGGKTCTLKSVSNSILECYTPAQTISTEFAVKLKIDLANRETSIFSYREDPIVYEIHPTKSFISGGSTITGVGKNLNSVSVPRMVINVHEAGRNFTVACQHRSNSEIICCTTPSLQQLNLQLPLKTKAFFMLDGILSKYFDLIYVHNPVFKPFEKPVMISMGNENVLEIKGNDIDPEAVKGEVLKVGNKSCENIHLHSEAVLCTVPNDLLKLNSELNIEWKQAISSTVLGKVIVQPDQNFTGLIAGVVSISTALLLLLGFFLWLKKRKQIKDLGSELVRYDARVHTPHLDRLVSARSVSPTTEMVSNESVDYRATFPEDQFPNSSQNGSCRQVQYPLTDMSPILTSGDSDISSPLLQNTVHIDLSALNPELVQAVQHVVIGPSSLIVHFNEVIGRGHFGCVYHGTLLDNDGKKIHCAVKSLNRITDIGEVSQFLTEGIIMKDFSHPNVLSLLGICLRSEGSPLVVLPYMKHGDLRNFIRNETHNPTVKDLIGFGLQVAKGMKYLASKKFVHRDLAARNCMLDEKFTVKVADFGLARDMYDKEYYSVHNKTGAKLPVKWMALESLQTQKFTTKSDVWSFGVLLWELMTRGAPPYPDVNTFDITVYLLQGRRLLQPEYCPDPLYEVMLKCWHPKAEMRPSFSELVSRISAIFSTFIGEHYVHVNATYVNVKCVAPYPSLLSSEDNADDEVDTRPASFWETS

## COc1cc2ncnc(Oc3cccc(NC(=O)Nc4cc(C(C)(C)C(F)(F)F)on4)c3)c2cc1OC
[1]
  pKd: 5.64
[2]
  pKd: 6.29
[3]
  pKd: 9.22
[4]
  pKd: 5.85
[5]
  pKd: 7.89
[6]
  pKd: 4.72
[7]
  pKd: 8.43
[8]
  pKd: 6.35
[9]
  pKd: 7.96
[10]
  pKd: 4.80
[11]
  pKd: 7.15
[12]
  pKd: 7.42
[13]
  pKd: 4.57
[14]
  pKd: 6.57
[15]
  pKd: 4.46
[16]
  pKd: 4.74
[17]
  pKd: 5.77
[18]
  pKd: 4.44
[19]
  pKd: 5.68
[20]
  pKd: 7.82
[21]
  pKd: 7.44
[22]
  pKd: 4.92
[23]
  pKd: 4.48
[24]
  pKd: 4.42
[25]
  pKd: 7.44
[26]
  pKd: 5.08
[27]
  pKd: 5.18
[28]
  pKd: 8.52
[29]
  pKd: 5.72
[30]
  pKd: 7.00
[31]
  pKd: 7.85
[32]
  pKd: 8.26
[33]
  pKd: 8.27
[34]
  pKd: 5.96
[35]
  pKd: 4.44
[36]
  pKd: 5.12
[37]
  pKd: 4.89
[38]
  pKd: 5.51
[39]
  pKd: 7.70
[40]
  pKd: 5.33
[41]
  pKd: 6.37

Source: the kinase profiling compilation of Christmann-Franck et al. (2016)
